Tested on: high-fat diet-induced obesity model mice
Test: Pyruvic acid loading test in mouse
Type: in vivo
Conditions: HPH-15 10 mg/kg or 100 mg/kg orally, 28 days; pyruvic acid 2 g/kg intraperitoneally; compared to olive oil
Description: The effect of HPH-15 on the changes in blood glucose levels in the presence of pyruvic acid involving in gluconeogenesis was examined using mice.
High-fat diet-induced obesity model mice were prepared in the same manner as in Example 7. Then, HPH-15 (10 mg/kg or 100 mg/kg, […]) dissolved in olive oil or metformin (300 mg/kg, […]) was orally administered once a day for 28 days. Olive oil alone was administered as a control. After 28 days of administration of each, pyruvic acid was intraperitoneally administered (2 g/kg) to the high-fat diet-induced obesity model mice, and blood glucose levels (mg/dl) were measured at 0, 15, 30, 60, 90, and 120 minutes after administration using a blood glucose meter Glutest Aqua (Sanwa Kagaku Kenkyusho Co., Ltd.).

CC(C)(C)SCCNC(=S)c1cccc(C(=S)NCCSC(C)(C)C)n1 [HPH-15]
blood glucose levels after pyruvic acid loading: significantly lowered

Reference: patent US20260000655A1, “PHARMACEUTICAL COMPOSITION FOR USE IN PREVENTION OR TREATMENT OF LIFESTYLE-RELATED DISEASE” (priority 2022, published 2026)
